In patent publication US12492195B2, “Preparation method for and crystal form of 3-aryloxy-3-five-membered heteroaryl-propylamine compound” (Zhangzhou Pien Tze Huang Pharmaceutical Co., Ltd., priority 2020, dated 2025):

Legend:
TRPM8 = target: T1, TRPM8 (Homo sapiens, UniProt Q7Z2W7); test: Manual patch clamp detection on TRPM8 channel; type: cell-based; details: 20.00 μM, positive compound
T1 construct: expressed in transfected cells
Description: (§1) TRPM8 cells were cultured in a cell culture dish with a diameter of 35 mm, placed in an incubator in 5% CO2 at 37° C., and passaged at a ratio of 1:5 every 48 hours. The formula of medium was 90% DMEM (Invitrogen), 10% fetal bovine serum (Gibco), 2 mM L-glutamine, 50 μg/mL Hygromycin B (Invitrogen) and 5 μg/mL Blasticidine HCl (Invitrogen). Before electrophysiological patch clamp experiment, the cell culture medium was replaced with medium containing 1 μg/mL doxycycline for at least 16 hours to induce TRPM8 expression.
(§2) On the day of the experiment, the cell culture medium was aspirated, the cell were rinsed once with extracellular fluid, and then 0.25% Trypsin-EDTA (Invitrogen) solution was added, and digested at room temperature for 1-2 minutes. The digestion solution was aspirated, the cell were resuspended with extracellular fluid, and transferred to the experimental dish for electrophysiological recording for further experiment.
Preparation of menthol: 100.00 mM of DMSO stock solution of menthol was added to the extracellular solution, diluting 1000-fold to 100.00 μM of menthol solution.
Preparation of AMTB: 5 μL of DMSO stock solution (20.00 mM) of AMTB was added to 4995 μL of menthol solution (100.00 uM), diluting 1000-fold to obtain the final concentration of 20.00 μM AMTB to be tested.
Preparation of IC-1: 20.00 mM or 10.00 mM of stock solution of IC-1 was taken and added to the agonist solution of the corresponding channel, diluting 1000 or 2000-fold to the final concentration of 10.00 μM of […] solution to be tested.
(§3) HEK293 cells stably expressing TRP channels, the corresponding agonist-induced channel current was recorded by whole-cell patch clamp technique at room temperature. […] Clamp voltages and data recording were controlled and recorded by a computer using pClamp 11 software with the sampling frequency of 10 kHz and the filtering frequency of 2 kHz. […] After the current was evoked for more than 40 s and no attenuation was determined, the dosing process started. […]

C57 mice = test: hot plate pain model in mice; type: in vivo; details: 10 mg/kg intraperitoneal, hot plate 55° C.
Description: SPF-grade C57 male mice were placed at hot plate with constant 55±0.1° C. […] If the pain reaction of mice was observed, the mice were taken out immediately to prevent mice from scalding. […] Appropriate amount of test compounds were added into required volume of physiological saline and fully suspended, and the concentration of the drug compound was prepared as 1 mg/ml. The standard volume of administration to mice was 10 ml/kg (or 0.1 ml/10 g). The administration mode was intraperitoneal administration. […] The administration volume was 10 ml/kg. […] Hot plate observation indicator is the time latency of mice on the hot plate at 55±0.1° C. Measurement and recording were conducted at 3 h before administration and 15 min, 30 min, and 60 min after administration. Maximum possible effect (MPE) % was used to evaluate analgesic effect of each compound, i.e., MPE %=[(Post drug latency-baseline latency)/(30-baseline latency)]×100. MPE % at different time points was recorded. The higher the value of MPE % was, the stronger the analgesic effect of the compound was.

TRPV1 = target: T2, TRPV1 (Homo sapiens, UniProt Q8NER1); test: Manual patch clamp detection on TRPV1 channel; type: cell-based; details: HEK293, Capsaicin-induced current
T2 construct: expressed in transfected cells
Description: TRPV1 cells were cultured in a cell culture dish with a diameter of 35 mm, placed in a 37° C., 5% CO2 incubator, and passaged at a ratio of 1:5 every 48 hours. Medium formula: 90% DMEM (Invitrogen), 10% Fetal bovine serum (Gibco). 2 mM L-glutamine, 50 μg/mL Hygromycin B (Invitrogen) and 5 μg/mL Blasticidine HCl (Invitrogen). Before electrophysiological patch clamp experiments, the cell culture medium was replaced with medium containing 1 μg/mL Doxycycline for at least 16 hours to induce the expression of TRPV1.
as §2, with “experiment. […]” for “experiment.”
as §3

TRPV4 = target: T3, TRPV4 (Homo sapiens, UniProt Q9HBA0); test: Manual patch clamp detection on TRPV4 channel; type: cell-based; details: 40.00 μM, positive compound
T3 construct: expressed in transfected cells
Description: as §1, with “TRPV4” for “TRPM8”, “the expression of TRPV4.” for “TRPM8 expression.”
as §2, with “experiment. […]” for “experiment.”
as §3

TRPA1 = target: T4, TRPA1 (Mus musculus, UniProt Q8BLA8); test: IonWorks Barracuda (IWB) automated patch clamp detection of TRPA1 inhibitory activity; type: cell-based; details: HEK293 cells stably expressing TRPA1, AITC-induced current
T4 construct: expressed in transfected cells
Description: IonWorks Barracuda (IWB) automated patch clamp detection was used as test method: HEK293 cells stably expressing TRPA1 were placed in the T175 culture flask with DMEM medium containing 15 μg/mL Blasticidin S HCl, 200 μg/mL Hygromycin B and 10% FBS, and cultured in an incubator in 5% CO2 at 37° C. When the cell density reached about 80%, the culture medium was removed, the residue was rinsed once with phosphate buffered saline (PBS) without calcium and magnesium. 3 mL of Trypsin was added to digest for 2 min, 7 mL of culture medium was added to terminate the digestion. The cells were collected to 15 mL centrifuge tube and centrifuged at 800 rpm for 3 min. After the supernatant was removed, the cells were added to appropriate volume of extracellular fluid for re-suspending, and the cell density was controlled at 2-3×10^6/mL for IWB experiment. The formulation of extracellular fluid (in mM) was 140 NaCl, 5 KCl, 1 MgCl2, 10 HEPES, 0.5 EGTA, 10 Glucose (pH 7.4); the formulation of intracellular fluid (in mM) was 140 CsCl, 10 HEPES, 5 EGTA, 0.1 CaCl2), 1 MgCl2 (pH 7.2). 28 mg/mL of amphotericin B was freshly prepared with DMSO on the day of experiment, and then final concentration of 0.1 mg/mL of that was prepared with intracellular fluid.
Population patch clamp (PPC) plate was used in IWB experiment. The entire detection process was automatically carried out by the instrument. […]
The record of data and the export of current amplitude measurement were carried out by IWB software (version 2.5.3, Molecular Devices Corporation. Union City, CA). No statistics was recorded for wells with sealing impedance lower than 20 MΩ. […] TRPA1 current amplitude was measured at ±100 mV. […] The dose-effect curve of compounds and IC50 were fitted and calculated by GraphPad Prism 5.02 (GraphPad Software, San Diego, CA).

SD rats = test: SNL model in rats, mechanical hyperalgesia test; type: in vivo; details: 100 mg/kg by gavage, 1 hour after administration
Description: Male SPF grade SD rats, weighed 150-180 g, were selected. Aseptic operation during surgery was performed. The animals were anesthetized with sodium pentobarbital (50 mg/kg, intraperitoneal injection). The surgical area of animal waist was shaved and the skin was disinfected three times with iodophor and 70% ethanol. After the skin was dried, the operation was started. Surgical knife was used to make a longitudinal incision at the back of the sacrum of the animal waist to expose the left paraspinal muscles, and distractor was used to separate muscle tissue to expose the spine. The left spinal nerves L5 and L6 were separated and ligated with a 6-0 silk thread, and the wound was sutured. […]
The animals were weighed to calculate the dosage. […] During the test, rapid paw withdrawal of animal was recorded as pain response. When the test fiber was removed from animal skin, the paw withdrawal of animal was also recorded as pain response. If animal moved or walked, the pain response was not recorded and the test was repeated. […]
Mechanical hyperalgesia was expressed as paw withdrawal threshold (PWT) in rat behavioral test, which was calculated with the following formula: 50% response threshold (g)=(10^(Xf+k))/10,000; • Xf=the final test fiber value used in the test; • k=table value; • =mean difference

ICR mice = test: acetic acid writhing pain model in mice; type: in vivo; details: 10 mg/kg intragastric, acetic acid 1 h after administration
Description: Male ICR mice, weighed 22-25 g, were fasted but allowed to drink water freely for 2 h before administration. All ICR mice were weighed and grouped randomly, and the number of animals in each group was greater than 10. […] […] The drug was administrated intragastrically based on the weight of mice. 1.5% acetic acid solution (0.1 ml/10 g) was injected intraperitoneally 1 hour after administration, and the frequency of visceral pain in each group of mice within 30 min was observed. When concave abdomen, stretched trunk and hind paw, and high buttocks appeared, one number point was recorded. Finally, the number of appearance of the above phenomenon was counted within 30 minutes.

T1 sequence (Q7Z2W7 whole entry, species assumed): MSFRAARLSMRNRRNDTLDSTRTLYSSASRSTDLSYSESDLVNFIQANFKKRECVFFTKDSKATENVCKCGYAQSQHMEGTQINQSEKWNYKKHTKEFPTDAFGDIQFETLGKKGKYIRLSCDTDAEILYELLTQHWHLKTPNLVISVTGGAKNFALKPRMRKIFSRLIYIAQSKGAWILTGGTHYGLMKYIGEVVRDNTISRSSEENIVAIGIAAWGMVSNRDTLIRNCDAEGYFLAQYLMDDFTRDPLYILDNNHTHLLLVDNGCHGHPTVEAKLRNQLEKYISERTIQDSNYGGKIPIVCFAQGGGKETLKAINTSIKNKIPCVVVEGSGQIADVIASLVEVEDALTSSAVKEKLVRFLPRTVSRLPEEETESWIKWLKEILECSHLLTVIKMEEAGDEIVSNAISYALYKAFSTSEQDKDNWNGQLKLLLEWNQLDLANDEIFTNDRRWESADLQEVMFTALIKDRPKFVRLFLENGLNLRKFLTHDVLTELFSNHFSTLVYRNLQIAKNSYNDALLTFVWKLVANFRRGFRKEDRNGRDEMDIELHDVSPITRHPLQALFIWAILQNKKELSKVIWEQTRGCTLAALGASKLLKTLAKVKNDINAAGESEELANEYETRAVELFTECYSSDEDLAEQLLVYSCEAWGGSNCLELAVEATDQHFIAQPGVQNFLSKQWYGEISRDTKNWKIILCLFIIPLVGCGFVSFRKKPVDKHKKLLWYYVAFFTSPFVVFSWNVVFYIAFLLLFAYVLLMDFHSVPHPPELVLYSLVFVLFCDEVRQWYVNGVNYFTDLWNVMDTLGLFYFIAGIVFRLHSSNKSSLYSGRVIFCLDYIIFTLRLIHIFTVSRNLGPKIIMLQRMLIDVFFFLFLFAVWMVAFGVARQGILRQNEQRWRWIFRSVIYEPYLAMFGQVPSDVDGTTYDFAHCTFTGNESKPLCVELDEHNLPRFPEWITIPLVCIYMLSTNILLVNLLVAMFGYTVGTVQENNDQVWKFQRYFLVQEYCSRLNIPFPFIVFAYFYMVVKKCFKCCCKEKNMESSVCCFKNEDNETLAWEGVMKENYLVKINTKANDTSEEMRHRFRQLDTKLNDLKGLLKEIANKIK
T2 sequence (Q8NER1 whole entry, species assumed): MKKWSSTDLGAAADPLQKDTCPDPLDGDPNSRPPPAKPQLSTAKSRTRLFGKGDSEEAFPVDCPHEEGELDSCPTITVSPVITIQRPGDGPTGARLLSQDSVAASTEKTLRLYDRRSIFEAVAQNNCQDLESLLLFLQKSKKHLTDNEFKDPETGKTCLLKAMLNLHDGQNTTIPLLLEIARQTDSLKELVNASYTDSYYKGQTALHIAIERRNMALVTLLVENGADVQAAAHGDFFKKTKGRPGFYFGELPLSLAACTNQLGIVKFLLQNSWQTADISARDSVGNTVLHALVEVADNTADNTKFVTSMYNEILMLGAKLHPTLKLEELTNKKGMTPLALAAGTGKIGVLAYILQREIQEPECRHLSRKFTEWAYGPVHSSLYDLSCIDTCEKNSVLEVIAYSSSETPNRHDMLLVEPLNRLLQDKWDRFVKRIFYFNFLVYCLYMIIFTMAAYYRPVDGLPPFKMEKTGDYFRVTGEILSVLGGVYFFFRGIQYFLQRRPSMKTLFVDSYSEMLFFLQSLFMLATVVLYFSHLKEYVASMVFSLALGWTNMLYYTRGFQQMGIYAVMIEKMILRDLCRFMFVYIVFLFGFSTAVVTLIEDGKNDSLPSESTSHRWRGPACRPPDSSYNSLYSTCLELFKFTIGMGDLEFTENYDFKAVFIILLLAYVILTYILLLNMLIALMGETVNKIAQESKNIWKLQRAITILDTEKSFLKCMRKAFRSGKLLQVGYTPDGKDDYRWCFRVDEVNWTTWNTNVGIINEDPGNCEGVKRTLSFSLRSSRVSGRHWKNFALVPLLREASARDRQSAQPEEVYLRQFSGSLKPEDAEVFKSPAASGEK
T3 sequence (Q9HBA0 whole entry, species assumed): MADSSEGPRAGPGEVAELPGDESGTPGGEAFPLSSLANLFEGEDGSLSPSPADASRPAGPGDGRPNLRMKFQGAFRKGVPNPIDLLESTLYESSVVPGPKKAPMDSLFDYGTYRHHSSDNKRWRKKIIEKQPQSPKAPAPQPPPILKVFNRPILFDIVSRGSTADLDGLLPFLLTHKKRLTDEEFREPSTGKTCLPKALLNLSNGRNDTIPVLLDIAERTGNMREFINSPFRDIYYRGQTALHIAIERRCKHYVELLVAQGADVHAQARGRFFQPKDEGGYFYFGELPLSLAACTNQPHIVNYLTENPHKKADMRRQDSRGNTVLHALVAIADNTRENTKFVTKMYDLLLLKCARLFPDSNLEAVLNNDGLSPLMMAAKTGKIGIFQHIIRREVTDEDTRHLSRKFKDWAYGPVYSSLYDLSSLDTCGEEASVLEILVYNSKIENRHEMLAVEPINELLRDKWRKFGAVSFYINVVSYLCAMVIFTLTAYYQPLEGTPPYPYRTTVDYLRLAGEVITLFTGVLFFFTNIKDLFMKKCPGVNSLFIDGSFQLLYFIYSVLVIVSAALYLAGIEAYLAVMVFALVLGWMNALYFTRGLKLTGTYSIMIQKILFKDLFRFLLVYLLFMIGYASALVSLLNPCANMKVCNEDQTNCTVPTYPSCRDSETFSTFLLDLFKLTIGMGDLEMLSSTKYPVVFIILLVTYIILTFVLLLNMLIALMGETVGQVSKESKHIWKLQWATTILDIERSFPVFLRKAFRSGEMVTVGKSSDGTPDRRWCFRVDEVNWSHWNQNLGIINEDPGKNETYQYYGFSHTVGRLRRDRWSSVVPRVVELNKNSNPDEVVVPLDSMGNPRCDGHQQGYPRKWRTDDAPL
T4 sequence (Q8BLA8 whole entry): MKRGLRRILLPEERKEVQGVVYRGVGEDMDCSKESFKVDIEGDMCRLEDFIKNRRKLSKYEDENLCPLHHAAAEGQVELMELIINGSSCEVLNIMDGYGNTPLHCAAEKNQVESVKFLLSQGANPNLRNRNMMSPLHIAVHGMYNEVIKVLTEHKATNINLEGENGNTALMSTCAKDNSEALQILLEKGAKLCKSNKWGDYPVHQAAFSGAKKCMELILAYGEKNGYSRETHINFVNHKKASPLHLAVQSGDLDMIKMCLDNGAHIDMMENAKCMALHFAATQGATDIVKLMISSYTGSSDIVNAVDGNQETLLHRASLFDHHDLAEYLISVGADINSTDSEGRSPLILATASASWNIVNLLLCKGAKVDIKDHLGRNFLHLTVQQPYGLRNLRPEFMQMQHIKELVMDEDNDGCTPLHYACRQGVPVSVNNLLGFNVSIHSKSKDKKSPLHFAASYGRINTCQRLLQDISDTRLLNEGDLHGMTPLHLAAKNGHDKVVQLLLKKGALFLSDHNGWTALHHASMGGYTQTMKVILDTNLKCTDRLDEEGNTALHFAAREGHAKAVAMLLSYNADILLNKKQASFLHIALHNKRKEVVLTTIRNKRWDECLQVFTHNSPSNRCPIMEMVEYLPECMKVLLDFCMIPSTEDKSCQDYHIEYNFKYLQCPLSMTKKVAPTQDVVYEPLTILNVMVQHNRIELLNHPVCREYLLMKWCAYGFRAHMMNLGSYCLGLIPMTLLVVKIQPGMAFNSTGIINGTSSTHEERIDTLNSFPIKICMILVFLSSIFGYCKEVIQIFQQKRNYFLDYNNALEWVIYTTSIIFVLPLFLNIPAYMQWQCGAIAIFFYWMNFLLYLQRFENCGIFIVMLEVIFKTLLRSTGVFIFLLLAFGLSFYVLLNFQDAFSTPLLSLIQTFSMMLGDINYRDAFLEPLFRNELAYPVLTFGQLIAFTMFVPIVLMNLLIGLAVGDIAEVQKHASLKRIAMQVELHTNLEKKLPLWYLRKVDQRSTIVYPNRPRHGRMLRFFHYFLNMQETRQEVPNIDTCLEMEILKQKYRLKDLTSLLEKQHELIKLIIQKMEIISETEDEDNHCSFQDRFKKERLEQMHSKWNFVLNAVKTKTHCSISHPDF

Cc1cccc(COc2ccccc2C(=O)N(CCCN)Cc2cccs2)c1 [AMTB, reference compound]
Inhibition % of TRPM8 current (TRPM8): over 90%

NCC[C@H](Oc1cccc2ccoc12)c1cccs1 [IC-23, (S)-3-(benzofuran-7-yloxy)-3-(thiophen-2-yl)propan-1-amine]
analgesic activity compared with the positive controls gabapentin and duloxetine (C57 mice): significantly stronger than that of 100 mg/kg of gabapentin
analgesic effect (MPE %) compared with the saline control group (C57 mice; within 60 min): very potent analgesic effect

Oc1cc2c(cc1O)CN(C(=S)NCCc1ccc(Cl)cc1)CCC2 [Capsazepine, reference compound]
inhibition at 10 µM (TRPV1): > 90%

N.N.N.N.N.N.N.N.N.N.N.N.N.N.[Cl-].[Cl-].[Cl-].[Cl-].[Cl-].[Cl-].[O-2].[O-2].[Ru+3].[Ru+3].[Ru+4] [RR, Ruthenium Red, reference compound]
Inhibition % of TRPV4 current (TRPV4): over 90%

CNCC[C@H](Oc1cccc2c1CCC2)c1ccccc1 [Compound C1]
IC50 (TRPA1): 20 to 50 µM

NCC1(CC(=O)O)CCCCC1 [Gabapentin, reference compound]
PWT (SD rats): 6.352 ± 1.897 g

CN1[C@H]2C[C@H](OC(=O)[C@H](CO)c3ccccc3)C[C@@H]1[C@@H](O)C2 [anisodamine, reference compound]
frequency of writhing response within 30 min (ICR mice): 27 times
